Assay results published in US10717734B2, “Indole and azaindole haloallylamine derivative inhibitors of lysyl oxidases and uses thereof” (PHARMAXIS LTD., priority 2016, dated 2020).
Counter-ions that a name gives are not always drawn.

Key:
Assay type in all cases: biochemical
[1] = biological target: Bovine LOX (Bos taurus (Bovine), UniProt P33072); test: LOX inhibition, peroxidase-coupled Amplex Red amine oxidase assay; settings: 30 min preincubation at 37° C., putrescine substrate
Excerpt: (§1) Method to Determine the Ability of Compounds of the Invention to Inhibit LOX and LOXL1-4 from Different Sources
Lysyl oxidase (LOX) is an extracellular copper dependent enzyme which oxidizes peptidyl lysine and hydroxylysine residues in collagen and lysine residues in elastin to produce peptidyl alpha-aminoadipic-delta-semialdehydes. […] There are five LOX family members; these are LOX, LOXL1, LOXL2, LOXL3 and LOXL4. LOX and LOXL family members can be acquired as recombinant active proteins from commercial sources, or extracted from animal tissues like bovine aorta, tendons, pig skin; or prepared from cell cultures. The inhibitory effects of the compounds of the present invention were tested against the given LOX-LOXL preparation using a high-throughput coupled colorimetric method (Holt A. and Palcic M., A peroxidase-coupled continuous absorbance plate-reader assay for flavin monoamine oxidases, copper-containing amine oxidases and related enzymes. Nat. Protoc. 2006; 1: 2498-2505). The assay was developed using either 384 or 96 well format. Briefly, in a standard 384 well plate assay 25 μL of a dilution of any of the isoenzymes and orthologues in 1.2 M urea, 50 mM sodium borate buffer (pH 8.2) were added into each well in the presence of 1 μM mofegiline and 0.5 mM pargyline (to inhibit SSAO and MAO-B and MAO-A, respectively). […] Twenty five μL of a reaction mixture containing twice the KM concentration of putrescine (Sigma Aldrich, e.g. 20 mM for LOX, or 10 mM for LOXL2 and LOXL3), 120 μM Amplex Red (Sigma Aldrich) and 1.5 U/mL horseradish peroxidase (Sigma Aldrich) prepared in 1.2 M urea, 50 mM sodium borate buffer (pH 8.2) were then added to the corresponding wells. The above volumes were doubled in the case of 96 wells plate. The fluorescence (RFU) was read every 2.5 min for 30 min at a range of temperatures from 37° to 45° C., excitation 565 nm and emission 590 (Optima; BMG labtech). The slope of the kinetics for each well was calculated using MARS data analysis software (BMG labtech) and this value was used to deduce the IC50 value (Dotmatics).

[2] = biological target: Human LOXL2 (Homo sapiens (Human), UniProt Q9Y4K0); test: LOXL2 inhibition, peroxidase-coupled Amplex Red amine oxidase assay; settings: 30 min preincubation at 37° C., putrescine substrate
Excerpt: as §1
Lysyl oxidase (LOX) is an extracellular copper dependent enzyme which oxidizes peptidyl lysine and hydroxylysine residues in collagen and lysine residues in elastin to produce peptidyl alpha-aminoadipic-delta-semialdehydes. […] There are five LOX family members; these are LOX, LOXL1, LOXL2, LOXL3 and LOXL4. LOX and LOXL family members can be acquired as recombinant active proteins from commercial sources, or extracted from animal tissues like bovine aorta, tendons, pig skin; or prepared from cell cultures. The inhibitory effects of the compounds of the present invention were tested against the given LOX-LOXL preparation using a high-throughput coupled colorimetric method (Holt A. and Palcic M., A peroxidase-coupled continuous absorbance plate-reader assay for flavin monoamine oxidases, copper-containing amine oxidases and related enzymes. Nat. Protoc. 2006; 1: 2498-2505). The assay was developed using either 384 or 96 well format. Briefly, in a standard 384 well plate assay 25 μL of a dilution of any of the isoenzymes and orthologues in 1.2 M urea, 50 mM sodium borate buffer (pH 8.2) were added into each well in the presence of 1 μM mofegiline and 0.5 mM pargyline (to inhibit SSAO and MAO-B and MAO-A, respectively). Test compounds were dissolved in DMSO and tested in a Concentration Response Curve (CRC) with 11 data points, typically in the micromolar or nanomolar range after incubation with the enzyme for 30 min at 37° C. Twenty five μL of a reaction mixture containing twice the KM concentration of putrescine (Sigma Aldrich, e.g. 20 mM for LOX, or 10 mM for LOXL2 and LOXL3), 120 μM Amplex Red (Sigma Aldrich) and 1.5 U/mL horseradish peroxidase (Sigma Aldrich) prepared in 1.2 M urea, 50 mM sodium borate buffer (pH 8.2) were then added to the corresponding wells. The above volumes were doubled in the case of 96 wells plate. The fluorescence (RFU) was read every 2.5 min for 30 min at a range of temperatures from 37° to 45° C., excitation 565 nm and emission 590 (Optima; BMG labtech). The slope of the kinetics for each well was calculated using MARS data analysis software (BMG labtech) and this value was used to deduce the IC50 value (Dotmatics).

[3] = biological target: Human recombinant SSAO/VAP-1 (Homo sapiens (Human), UniProt Q16853); test: Human recombinant SSAO/VAP-1 amine oxidase inhibition; settings: 30 min preincubation at 37° C., 600 μM benzylamine
Procedure: Method to Determine the Ability of Compounds of Formula I to Inhibit Human Recombinant SSAO/VAP-1
Human recombinant SSAO/VAP-1 amine oxidase activity was determined using the coupled colorimetric method as described for monoamine oxidase, copper-containing amine oxidases and related enzymes (Holt A. and Palcic M., A peroxidase-coupled continuous absorbance plate-reader assay for flavin monoamine oxidases, copper-containing amine oxidases and related enzymes. Nat Protoc 2006; 1: 2498-2505). Briefly, a cloned cDNA template corresponding to residues 34-763 of human SSAO/VAP-1, and incorporating a mouse Ig kappa (κ) signal sequence, N-terminal flag epitope tag and tobacco etch virus (TEV) cleavage site, was assembled in a mammalian expression vector (pLO-CMV) by Geneart AG. This vector containing human SSAO/VAP-1 residues was transfected into CHO-K1 glycosylation mutant cell line, Lec 8. A clone stably expressing human SSAO/VAP-1 was isolated and cultured in large scale. Active human SSAO/VAP-1 was purified and recovered using immunoaffinity chromatography. This was used as the source for SSAO/VAP-1 activity. A high-throughput colorimetric assay was developed using either 96 or 384 well format. Briefly, in a standard 96 well plate assay 50 μL of purified human SSAO/VAP-1 (0.25 μg/mL) in 0.1 M sodium phosphate buffer (pH 7.4) was added into each well. Test compounds were dissolved in DMSO and tested in a Concentration Response Curve (CRC) with 4-11 data points, typically in the micromolar or nanomolar range after incubation with human SSAO/VAP-1 for 30 min at 37° C. After 30 min incubation, 50 μL of the reaction mixture containing 600 μM benzylamine (Sigma Aldrich), 120 μM Amplex Red (Sigma Aldrich) and 1.5 U/mL horseradish peroxidase (Sigma Aldrich) prepared in 0.1 M sodium phosphate buffer (pH 7.4) were added to the corresponding well. The fluorescence unit (RFU) was read every 2.5 min for 30 min at 37° C. excitation 565 nm and emission 590 (Optima; BMG labtech). The slope of the kinetics for each well was calculated using MARS data analysis software (BMG labtech) and this value was used to deduce the IC50 value (Dotmatics).

[4] = biological target: Recombinant human MAO-B (Homo sapiens (Human), UniProt P27338); test: Human recombinant MAO-B inhibition; settings: benzylamine 100 μM
Procedure: Method to Determine the Ability of Compounds of Formula I to Inhibit Human Recombinant MAO-B
The specificity of the compounds of this invention was tested by determining their ability to inhibit MAO-B activities in vitro. Recombinant human MAO-B (0.06 mg/mL; Sigma Aldrich) was used as source of MAO-B enzyme activities. The assay was performed in a similar way as for human SSAO/VAP-1 (Example 36) except, the substrate benzylamine was used at 100 μM.

Recombinant human MAO-B, sequence (P27338 whole entry): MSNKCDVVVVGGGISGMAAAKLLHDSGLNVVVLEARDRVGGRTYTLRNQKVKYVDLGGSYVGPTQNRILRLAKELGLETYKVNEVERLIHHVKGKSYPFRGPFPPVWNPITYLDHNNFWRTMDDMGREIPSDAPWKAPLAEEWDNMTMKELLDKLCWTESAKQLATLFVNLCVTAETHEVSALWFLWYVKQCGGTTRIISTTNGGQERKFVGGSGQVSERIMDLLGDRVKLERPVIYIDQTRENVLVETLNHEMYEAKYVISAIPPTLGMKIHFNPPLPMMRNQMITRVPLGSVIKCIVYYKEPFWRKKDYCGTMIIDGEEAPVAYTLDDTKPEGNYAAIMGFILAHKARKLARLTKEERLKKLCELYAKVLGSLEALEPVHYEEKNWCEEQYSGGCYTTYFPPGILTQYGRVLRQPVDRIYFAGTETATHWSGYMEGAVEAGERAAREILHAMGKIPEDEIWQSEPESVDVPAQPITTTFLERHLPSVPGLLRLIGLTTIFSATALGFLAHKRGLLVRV
Human LOXL2, sequence (Q9Y4K0 26-774): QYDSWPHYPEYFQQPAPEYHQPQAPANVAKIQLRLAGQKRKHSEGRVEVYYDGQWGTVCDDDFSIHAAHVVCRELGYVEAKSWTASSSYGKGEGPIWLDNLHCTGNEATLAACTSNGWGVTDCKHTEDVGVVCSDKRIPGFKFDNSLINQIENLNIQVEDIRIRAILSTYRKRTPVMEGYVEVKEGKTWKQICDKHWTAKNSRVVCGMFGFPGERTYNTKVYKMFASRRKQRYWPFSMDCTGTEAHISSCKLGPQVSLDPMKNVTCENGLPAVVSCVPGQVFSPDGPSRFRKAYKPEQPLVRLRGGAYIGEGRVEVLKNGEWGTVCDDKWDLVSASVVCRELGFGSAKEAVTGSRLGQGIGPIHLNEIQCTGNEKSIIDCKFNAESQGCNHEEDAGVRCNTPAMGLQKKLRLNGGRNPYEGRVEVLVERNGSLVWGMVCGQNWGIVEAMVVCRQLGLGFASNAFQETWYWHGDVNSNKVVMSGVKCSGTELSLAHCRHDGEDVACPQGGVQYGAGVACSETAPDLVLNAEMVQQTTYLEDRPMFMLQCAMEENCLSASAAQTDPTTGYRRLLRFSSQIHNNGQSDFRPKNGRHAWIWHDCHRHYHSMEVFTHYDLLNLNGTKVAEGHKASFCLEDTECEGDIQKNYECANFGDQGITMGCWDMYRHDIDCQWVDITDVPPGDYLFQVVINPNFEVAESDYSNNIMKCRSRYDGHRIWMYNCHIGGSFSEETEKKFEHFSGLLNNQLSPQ
Human recombinant SSAO/VAP-1, sequence (Q16853 34-763): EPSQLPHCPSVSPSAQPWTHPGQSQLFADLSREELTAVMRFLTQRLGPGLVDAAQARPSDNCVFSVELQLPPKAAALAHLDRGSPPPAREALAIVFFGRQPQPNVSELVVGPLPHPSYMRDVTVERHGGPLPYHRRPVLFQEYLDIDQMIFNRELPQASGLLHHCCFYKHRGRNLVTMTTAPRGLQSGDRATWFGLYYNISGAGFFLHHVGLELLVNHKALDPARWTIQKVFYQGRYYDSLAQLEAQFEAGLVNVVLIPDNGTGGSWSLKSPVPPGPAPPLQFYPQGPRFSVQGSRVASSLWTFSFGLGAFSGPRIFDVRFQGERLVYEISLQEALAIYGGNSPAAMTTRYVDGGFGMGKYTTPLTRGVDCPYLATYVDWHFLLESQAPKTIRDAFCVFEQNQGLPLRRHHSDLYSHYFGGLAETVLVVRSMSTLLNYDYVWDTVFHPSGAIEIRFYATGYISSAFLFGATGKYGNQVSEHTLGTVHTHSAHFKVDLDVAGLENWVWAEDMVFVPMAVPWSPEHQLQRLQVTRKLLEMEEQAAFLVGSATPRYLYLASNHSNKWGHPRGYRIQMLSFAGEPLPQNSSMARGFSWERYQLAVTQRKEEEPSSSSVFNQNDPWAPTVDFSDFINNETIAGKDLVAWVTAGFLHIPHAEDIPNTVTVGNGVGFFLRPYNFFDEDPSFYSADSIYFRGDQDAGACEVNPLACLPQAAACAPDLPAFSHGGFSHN
Bovine LOX, sequence (P33072 170-418): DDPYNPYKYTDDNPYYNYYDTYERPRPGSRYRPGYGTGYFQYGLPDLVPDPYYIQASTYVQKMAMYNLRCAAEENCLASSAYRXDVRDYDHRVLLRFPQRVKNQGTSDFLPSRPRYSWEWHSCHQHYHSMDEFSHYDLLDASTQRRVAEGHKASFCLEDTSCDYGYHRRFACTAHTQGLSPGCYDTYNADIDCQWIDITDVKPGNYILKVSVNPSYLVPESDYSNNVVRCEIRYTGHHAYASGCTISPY

SMILES | IC50 [1] [nM] | IC50 [2] [nM] | IC50 [3] [nM] | IC50 [4] [nM]
Cc1c(Cc2ccc(S(=O)(=O)N(C)C)cc2)c2cc(C(=O)O)ccc2n1C/C(F)=C/CN [Compound 1, (Z)-1-(4-amino-2-fluorobut-2-en-1-yl)-3-(4-(N,N-dimethylsulfamoyl)benzyl)-2-methyl-1H-indole-5-carboxylic acid hydrochloride] | > 300 | < 300 | > 3000 | > 3000
COC(=O)c1ccc2c(c1)c(Cc1ccc(S(=O)(=O)N(C)C)cc1)c(C)n2C/C(F)=C/CN [Compound 2, Methyl (Z)-1-(4-amino-2-fluorobut-2-en-1-yl)-3-(4-(N,N-dimethylsulfamoyl)benzyl)-2-methyl-1H-indole-5-carboxylate hydrochloride] | > 300 | < 300 | > 3000 | > 3000
Cc1c(Cc2ccc(S(=O)(=O)N(C)C)cc2)c2cc(C(=O)N(C)C)ccc2n1C/C(F)=C/CN [Compound 3, (Z)-1-(4-amino-2-fluorobut-2-en-1-yl)-3-(4-(N,N-dimethylsulfamoyl)benzyl)-N,N,2-trimethyl-1H-indole-5-carboxamide hydrochloride] | > 300 | < 300 | > 3000 | > 3000
Cc1c(Cc2ccc(S(=O)(=O)N(C)C)cc2)c2cc(C(N)=O)ccc2n1C/C(F)=C/CN [Compound 4, (Z)-1-(4-amino-2-fluorobut-2-en-1-yl)-3-(4-(N,N-dimethylsulfamoyl)benzyl)-2-methyl-1H-indole-5-carboxamide hydrochloride] | > 300 | < 300 | > 3000 | > 3000
CN(C)C(=O)c1c(Cc2ccc(S(=O)(=O)N(C)C)cc2)c2ccccc2n1C/C(F)=C/CN [Compound 5, (Z)-1-(4-amino-2-fluorobut-2-en-1-yl)-3-(4-(N,N-dimethylsulfamoyl)benzyl)-N,N-dimethyl-1H-indole-2-carboxamide hydrochloride] | > 300 | < 300 | > 3000 | > 3000
Cc1c(Cc2ccc(S(=O)(=O)N(C)C)cc2)c2cc(S(=O)(=O)N(C)C)ccc2n1C/C(F)=C/CN [Compound 6, (Z)-1-(4-amino-2-fluorobut-2-en-1-yl)-3-(4-(N,N-dimethylsulfamoyl)benzyl)-N,N,2-trimethyl-1H-indole-5-sulfonamide hydrochloride] | > 300 | < 300 | > 3000 | > 3000
Cc1c(Cc2cccc(S(=O)(=O)N(C)C)c2)c2cc(S(=O)(=O)N(C)C)ccc2n1C/C(F)=C/CN [Compound 7, (Z)-1-(4-amino-2-fluorobut-2-en-1-yl)-3-(3-(N,N-dimethylsulfamoyl)benzyl)-N,N,2-trimethyl-1H-indole-5-sulfonamide hydrochloride] | > 300 | < 300 | > 3000 | > 3000
Cc1c(Cc2ccc(S(=O)(=O)N(C)C)cc2)c2ncccc2n1C/C(F)=C/CN [Compound 8, (Z)-4-((1-(4-amino-2-fluorobut-2-en-1-yl)-2-methyl-1H-pyrrolo[3,2-b]pyridin-3-yl)methyl)-N,N-dimethylbenzenesulfonamide dihydrochloride] | > 300 | < 300 | > 3000 | > 3000
Cc1ccc2c(n1)c(Cc1ccc(S(=O)(=O)N(C)C)cc1)c(C)n2C/C(F)=C/CN [Compound 9, (Z)-4-((1-(4-amino-2-fluorobut-2-en-1-yl)-2,5-dimethyl-1H-pyrrolo[3,2-b]pyridin-3-yl)methyl)-N,N-dimethylbenzenesulfonamide dihydrochloride] | > 300 | < 300 | > 3000 | > 3000
Cc1c(Cc2ccc(S(C)(=O)=O)cc2)c2ncccc2n1C/C(F)=C/CN [Compound 10, (Z)-3-fluoro-4-(2-methyl-3-(4-(methylsulfonyl)benzyl)-1H-pyrrolo[3,2-b]pyridin-1-yl)but-2-en-1-amine dihydrochloride] | > 300 | < 300 | > 3000 | > 3000
Cc1cnc2c(Cc3ccc(S(=O)(=O)N(C)C)cc3)c(C)n(C/C(F)=C/CN)c2c1 [Compound 11, (Z)-4-((1-(4-amino-2-fluorobut-2-en-1-yl)-2,6-dimethyl-1H-pyrrolo[3,2-b]pyridin-3-yl)methyl)-N,N-dimethylbenzenesulfonamide dihydrochloride] | > 300 | < 300 | > 3000 | > 3000
CCS(=O)(=O)c1ccc(Cc2c(C(C)C)n(C/C(F)=C/CN)c3cccnc23)cn1 [Compound 43, (Z)-4-(3-((6-(ethylsulfonyl)pyridin-3-yl)methyl)-2-isopropyl-1H-pyrrolo[3,2-b]pyridin-1-yl)-3-fluorobut-2-en-1-amine dihydrochloride] | > 300 | < 300 |  | 
CC(C)c1c(Cc2ccc(S(=O)(=O)C3CC3)nc2)c2ncccc2n1C/C(F)=C/CN [Compound 44, (Z)-4-(3-((6-(cyclopropylsulfonyl)pyridin-3-yl)methyl)-2-isopropyl-1H-pyrrolo[3,2-b]pyridin-1-yl)-3-fluorobut-2-en-1-amine dihydrochloride] | > 300 | < 300 |  | 
